This is an account of results in patent US8466181B2, “1,2,3-triazole-imidazole compounds” (Hoffmann-La Roche Inc., priority 2010, dated 2013).

The experiment has as its target T1, human GABA A receptor α5β3γ2 (GABA Aa5) (Homo sapiens, UniProt P18507+P31644).
T1 construct: expressed in transfected cells; host or cells: HEK293 cells, transiently transfected; membranes prepared
Nature of the experiment: [3H]flumazenil competition binding, HEK293 cells expressing human receptors. How it is done:
The ability of compounds present invention to bind to GABA A receptor subtypes was determined by competition for [^3H]flumazenil (85 Ci/mmol; Roche) binding to HEK293 cells expressing rat (stably transfected) or human (transiently transfected) receptors of composition α1β2/3γ2, α2β3γ2, α3β3γ2 and α5β3γ2.
Cell pellets were suspended in Krebs-tris buffer (4.8 mM KCl, 1.2 mM CaCl2, 1.2 mM MgCl2, 120 mM NaCl, 15 mM Tris; pH 7.5; binding assay buffer), homogenized by polytron for ca. 20 sec on ice and centrifuged for 60 min at 4° C. (50000 g; Sorvall, rotor: SM24=20000 rpm). The cell pellets were resuspended in Krebs-tris buffer and homogenized by polytron for ca. 15 sec on ice. Protein was measured (Bradford method, Bio-Rad) and aliquots of 1 mL were prepared and stored at −80° C.
Assays were incubated to equilibrium for 1 hour at 4° C. and harvested onto GF/C uni-filters (Packard) by filtration using a Packard harvester and washing with ice-cold wash buffer (50 mM Tris; pH 7.5). After drying, filter-retained radioactivity was detected by liquid scintillation counting.
Ki values were calculated using Excel-Fit (Microsoft) and are the means of two determinations.
Representative test results, obtained by the above described assay measuring binding affinity to HEK293 cells expressing human (h) receptors, are shown in Table 1 below.

[1] abbreviates: displacement of [3H]flumazenil 0.5 nM, HEK293 transiently transfected human receptors, means of two determinations, read-out: hKi (GABA Aa5).

Where two headings read alike, the source gives them in different places.

For `CC(=O)c1ccc(-n2cnc(-c3c(-c4ccc(F)cc4)nnn3C)c2)cc1` [Example 1, 1-(4-{4-[5-(4-Fluoro-phenyl)-3-methyl-3H-[1,2,3]triazol-4-yl]-imidazol-1-yl}-phenyl)-ethanone], the Ki under setting [1] amounted to 27.2 nM.
As for `Cn1nnc(-c2ccccc2F)c1-c1cn(-c2ccc(C(=O)NC3(C)COC3)cn2)cn1` [Example 27, 6-(4-(4-(2-Fluorophenyl)-1-methyl-1H-1,2,3-triazol-5-yl)-1H-imidazol-1-yl)-N-(3-methyloxetan-3-yl)nicotinamide], the Ki under setting [1] turned out to be 16.1 nM.
Regarding `CC(C)NC(=O)c1ccc(-n2cnc(-c3c(-c4ccccc4F)nnn3C)c2)nc1` [Example 23, 6-(4-(4-(2-Fluorophenyl)-1-methyl-1H-1,2,3-triazol-5-yl)-1H-imidazol-1-yl)-N-isopropylnicotinamide], the Ki under setting [1] amounted to 54.9 nM.
As to `CC(C)NC(=O)c1ccc(-n2cnc(-c3c(-c4ccc(F)cc4)nnn3C)c2)cc1` [Example 3, 4-{4-[5-(4-Fluoro-phenyl)-3-methyl-3H-[1,2,3]triazol-4-yl]-imidazol-1-yl}-N-isopropyl-benzamide], the Ki under setting [1] worked out at 21.1 nM.
As for `CC(C)NC(=O)c1ccc(-n2cnc(-c3c(-c4ccccc4Cl)nnn3C)c2)nc1` [Example 18, 6-(4-(4-(2-Chlorophenyl)-1-methyl-1H-1,2,3-triazol-5-yl)-1H-imidazol-1-yl)-N-isopropylnicotinamide], the Ki under setting [1] stood at 75.1 nM.
Still for that read-out and setting: the figure for `Cc1nnn(-c2ccccc2F)c1-c1cn(-c2ccc(C(=O)NCC3CC3)cn2)cn1` [Example 53, N-(Cyclopropylmethyl)-6-(4-(1-(2-fluorophenyl)-4-methyl-1H-1,2,3-triazol-5-yl)-1H-imidazol-1-yl)nicotinamide] is 32.7 nM.
Regarding `COC(=O)c1ccc(-n2cnc(-c3c(-c4ccccc4F)nnn3C)c2)nc1` [Example 20, Methyl 6-(4-(4-(2-fluorophenyl)-1-methyl-1H-1,2,3-triazol-5-yl)-1H-imidazol-1-yl)nicotinate], under setting [1], the Ki came out at 16.2 nM.
As to `Cc1nnn(-c2ccccc2F)c1-c1cn(-c2ccc(C(=O)NC(C)(C)CO)cn2)cn1` [Example 47, 6-(4-(1-(2-Fluorophenyl)-4-methyl-1H-1,2,3-triazol-5-yl)-1H-imidazol-1-yl)-N-(1-hydroxy-2-methylpropan-2-yl)nicotinamide], under setting [1], the Ki is 51.7 nM.
On to `Cc1nnn(-c2ccc(F)cc2)c1-c1cn(-c2ccc(C(=O)N3CCS(=O)(=O)CC3)cn2)cn1` [Example 44, (1,1-Dioxo-1,6-thiomorpholin-4-yl)-(6-{4-[3-(4-fluoro-phenyl)-5-methyl-3H-[1,2,3]triazol-4-yl]-imidazol-1-yl}-pyridin-3-yl)-methanone], for which the Ki under setting [1] stood at 29 nM.
Turning to `Cn1nnc(-c2ccc(F)cc2)c1-c1cn(-c2ccc(C(=O)NC3(C)COC3)cn2)cn1` [Example 13, 6-{4-[5-(4-Fluoro-phenyl)-3-methyl-3H-[1,2,3]triazol-4-yl]-imidazol-1-yl}-N-(3-methyl-oxetan-3-yl)-nicotinamide], the Ki under setting [1] amounted to 14.6 nM.
On to `Cc1nnn(-c2ccc(F)cc2)c1-c1cn(-c2ccc(C(=O)NC3CCOCC3)cn2)cn1` [Example 37, 6-{4-[3-(4-Fluoro-phenyl)-5-methyl-3H-[1,2,3]triazol-4-yl]-imidazol-1-yl}-N-(tetrahydropyran-4-yl)-nicotinamide], for which the Ki under setting [1] came out at 25.9 nM.
As for `Cn1nnc(-c2ccccc2F)c1-c1cn(-c2ccc([N+](=O)[O-])cc2)cn1` [Example 9, 4-(2-Fluorophenyl)-1-methyl-5-(1-(4-nitrophenyl)-1H-imidazol-4-yl)-1H-1,2,3-triazole], the Ki under setting [1] was determined as 76.3 nM.
In the case of `CC(=O)c1ccc(-n2cnc(-c3c(C)nnn3-c3ccc(F)cc3)c2)cc1` [Example 32, 1-(4-{4-[3-(4-Fluoro-phenyl)-5-methyl-3H-[1,2,3]triazol-4-yl]-imidazol-1-yl}-phenyl)-ethanone], the Ki under setting [1] is 25.9 nM.
In the case of `Cn1nnc(-c2ccc(F)cc2)c1-c1cn(-c2ccc(C(=O)N3CC4(COC4)C3)cn2)cn1` [Example 14, (6-{4-[5-(4-Fluoro-phenyl)-3-methyl-3H-[1,2,3]triazol-4-yl]-imidazol-1-yl}-pyridin-3-yl)-(2-oxa-6-aza-spiro[3.3]hept-6-yl)-methanone], the Ki under setting [1] was determined as 37.6 nM.
Still for that read-out and setting: to `Cc1nnn(-c2ccc(F)cc2)c1-c1cn(-c2ccc(C(=O)NC3(C)COC3)cn2)cn1` [Example 38, 6-(4-(1-(4-Fluorophenyl)-4-methyl-1H-1,2,3-triazol-5-yl)-1H-imidazol-1-yl)-N-(3-methyloxetan-3-yl)nicotinamide] belongs 9.6 nM.
On to `Cc1nnn(-c2ccc(F)cc2)c1-c1cn(-c2ccc(C(F)(F)F)cn2)cn1` [Example 34, 2-{4-[3-(4-Fluoro-phenyl)-5-methyl-3H-[1,2,3]triazol-4-yl]-imidazol-1-yl}-5-trifluoromethyl-pyridine], for which the Ki under setting [1] came out at 45.6 nM.
Turning to `Cc1nnn(-c2ccccc2F)c1-c1cn(-c2ccc(C(=O)N3CC4(COC4)C3)cn2)cn1` [Example 49, (6-(4-(1-(2-Fluorophenyl)-4-methyl-1H-1,2,3-triazol-5-yl)-1H-imidazol-1-yl)pyridin-3-yl)(2-oxa-6-azaspiro[3.3]heptan-6-yl)methanone], the Ki under setting [1] came out at 90 nM.
The same measure, in the same setting: to `Cc1nnn(-c2ccc(F)cc2)c1-c1cn(-c2ccc(C(N)=O)cn2)cn1` [Example 40, 6-(4-(1-(4-Fluorophenyl)-4-methyl-1H-1,2,3-triazol-5-yl)-1H-imidazol-1-yl)nicotinamide] belongs 12.6 nM.
In turn, `CC(=O)c1ccc(-n2cnc(-c3c(-c4ccccc4F)nnn3C)c2)cc1` [Example 10, 1-(4-(4-(4-(2-Fluorophenyl)-1-methyl-1H-1,2,3-triazol-5-yl)-1H-imidazol-1-yl)phenyl)ethanone] displayed a Ki of 29.6 nM.
For `Cc1nnn(-c2ccccc2F)c1-c1cn(-c2ccc(C(=O)NC(C)C)cn2)cn1` [Example 43, 6-(4-(1-(2-Fluorophenyl)-4-methyl-1H-1,2,3-triazol-5-yl)-1H-imidazol-1-yl)-N-isopropylnicotinamide], the Ki under setting [1] worked out at 15.1 nM.
Still for that read-out and setting: to `Cn1nnc(-c2ccc(F)cc2)c1-c1cn(-c2ccc(C(=O)N3CC4(COC4)C3)cc2)cn1` [Example 6, (4-{4-[5-(4-Fluoro-phenyl)-3-methyl-3H-[1,2,3]triazol-4-yl]-imidazol-1-yl}-phenyl)-(2-oxa-6-aza-spiro[3.3]hept-6-yl)-methanone] belongs 51.3 nM; to `Cn1nnc(-c2ccc(F)cc2)c1-c1cn(-c2ccc(C(=O)NC3CCOCC3)cc2)cn1` [Example 4, 4-{4-[5-(4-Fluoro-phenyl)-3-methyl-3H-[1,2,3]triazol-4-yl]-imidazol-1-yl}-N-(tetrahydropyran-4-yl)-benzamide], 36.6 nM.
In the case of `Cn1nnc(-c2ccccc2F)c1-c1cn(-c2ccc(C(=O)NC3CCOCC3)cn2)cn1` [Example 22, 6-(4-(4-(2-Fluorophenyl)-1-methyl-1H-1,2,3-triazol-5-yl)-1H-imidazol-1-yl)-N-(tetrahydro-2H-pyran-4-yl)nicotinamide], under setting [1], the Ki was 43.3 nM.
On to `Cn1nnc(-c2ccccc2F)c1-c1cn(-c2ccc(C(=O)NC3CC3)cn2)cn1` [Example 29, N-Cyclopropyl-6-(4-(4-(2-fluorophenyl)-1-methyl-1H-1,2,3-triazol-5-yl)-1H-imidazol-1-yl)nicotinamide], for which the Ki under setting [1] was 9.5 nM.
With `Cn1nnc(-c2ccc(F)cc2)c1-c1cn(-c2ccc(C(=O)NC3CCOCC3)cn2)cn1` [Example 12, 6-{4-[5-(4-Fluoro-phenyl)-3-methyl-3H-[1,2,3]triazol-4-yl]-imidazol-1-yl}-N-(tetrahydropyran-4-yl)-nicotinamide], the Ki under setting [1] was determined as 33 nM.
`Cc1nnn(-c2ccc(F)cc2)c1-c1cn(-c2ccc(C(=O)NC(C)(C)CO)cn2)cn1` [Example 41, 6-(4-(1-(4-Fluorophenyl)-4-methyl-1H-1,2,3-triazol-5-yl)-1H-imidazol-1-yl)-N-(1-hydroxy-2-methylpropan-2-yl)nicotinamide]: the Ki under setting [1] was found to be 20.8 nM.
For `Cc1nnn(-c2ccc(F)cc2)c1-c1cn(-c2ccc(C(F)(F)F)cc2)cn1` [Example 31, 1-(4-Fluoro-phenyl)-4-methyl-5-[1-(4-trifluoromethyl-phenyl)-1H-imidazol-4-yl]-1H-[1,2,3]triazole], the Ki under setting [1] was determined as 49.2 nM.
